23 molecules from patent publication US20090029992A1, “SUBSTITUTED PYRAZOLE COMPOUNDS” (priority 2007, published 2009) can be followed below.

Broadly, the IC50 is the concentration at which inhibition is half-maximal. The term GI50 denotes the concentration that inhibits growth by half.

The target of test [1] is T1, N-terminal GST-tagged recombinant human Flt3, residues 564-end (Homo sapiens, UniProt P36888).
T1 construct: recombinant human Flt3, residues 564-end; GST (N); purchased Upstate USA Inc, 706 Forest Street, Charlottesville, Va
T1 sequence (P36888 564-993 limits assumed): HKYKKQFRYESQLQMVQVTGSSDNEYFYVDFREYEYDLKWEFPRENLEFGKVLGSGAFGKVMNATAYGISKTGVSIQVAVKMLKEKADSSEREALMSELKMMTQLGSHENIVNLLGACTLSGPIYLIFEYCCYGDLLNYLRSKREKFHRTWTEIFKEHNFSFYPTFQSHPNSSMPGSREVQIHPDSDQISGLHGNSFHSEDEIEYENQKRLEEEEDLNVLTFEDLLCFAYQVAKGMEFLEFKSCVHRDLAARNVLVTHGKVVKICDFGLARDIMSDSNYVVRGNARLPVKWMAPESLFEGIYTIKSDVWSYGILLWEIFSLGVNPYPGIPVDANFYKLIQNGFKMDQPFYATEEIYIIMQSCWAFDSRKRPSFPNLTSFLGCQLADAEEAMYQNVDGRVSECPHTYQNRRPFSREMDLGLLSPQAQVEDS
The test can be described thus: Flt3 kinase inhibition assay (33P-ATP filter assay). The class given is biochemical. Particulars: 40 minutes at room temperature. In a few lines: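 Serial compound dilutions incubated 40 min at room temperature with 5-10 mU Flt3 kinase, 50 μM peptide substrate and [γ-33P]ATP/10 mM magnesium acetate, pH 7.0. Phosphoric acid stop, filter capture and scintillation counting; activity compared with uninhibited reactions.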

A further test deals with HCT116 cells. The test can be described thus: Whole cell cytotoxicity assay, Sulforhodamine B. The class given is cell-based. Particulars: Homo sapiens, HCT-116, HCT116, 96 hours incubation, SRB; for GI50: read-out: GI50 HCT116 cell growth; for IC50: read-out: IC50 values in this assay (HCT116 cell growth). The method in brief:
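HCT116 cells (500/well) in DMEM/10% FBS/2 mM glutamine were preincubated 24 h, then exposed to compound for 96 h at 37 °C, 5% CO2, in duplicate. Cells were fixed with TCA and stained with sulforhodamine B (A570). GI50, TGI and LC50 were derived relative to a time-zero plate and an untreated control.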

In test [2] the target is T2, N-terminal His6-tagged recombinant human KDR, residues 790-end (Homo sapiens, UniProt P35968).
T2 construct: recombinant human KDR, residues 790-end; His6 (N); purchased Upstate USA Inc, 706 Forest Street, Charlottesville, Va
The test can be described thus: KDR kinase inhibition assay (33P-ATP filter assay). It is filed as biochemical. In a few lines: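 Radiometric filter assay: reaction started with Mg acetate (10 mM)/[γ-33P]ATP mix, run 40 min at room temperature in 8 mM MOPS pH 7.0 with 0.2 mM EDTA, MBP substrate (0.33 mg/mL) and recombinant KDR 790-end (5-10 mU). Phosphate incorporation by scintillation counting of P30 filtermats, compared with uninhibited reactions.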

[3] abbreviates: group with IC50 greater than 100 nM.

T2 sequence (P35968 790-1356 limits assumed): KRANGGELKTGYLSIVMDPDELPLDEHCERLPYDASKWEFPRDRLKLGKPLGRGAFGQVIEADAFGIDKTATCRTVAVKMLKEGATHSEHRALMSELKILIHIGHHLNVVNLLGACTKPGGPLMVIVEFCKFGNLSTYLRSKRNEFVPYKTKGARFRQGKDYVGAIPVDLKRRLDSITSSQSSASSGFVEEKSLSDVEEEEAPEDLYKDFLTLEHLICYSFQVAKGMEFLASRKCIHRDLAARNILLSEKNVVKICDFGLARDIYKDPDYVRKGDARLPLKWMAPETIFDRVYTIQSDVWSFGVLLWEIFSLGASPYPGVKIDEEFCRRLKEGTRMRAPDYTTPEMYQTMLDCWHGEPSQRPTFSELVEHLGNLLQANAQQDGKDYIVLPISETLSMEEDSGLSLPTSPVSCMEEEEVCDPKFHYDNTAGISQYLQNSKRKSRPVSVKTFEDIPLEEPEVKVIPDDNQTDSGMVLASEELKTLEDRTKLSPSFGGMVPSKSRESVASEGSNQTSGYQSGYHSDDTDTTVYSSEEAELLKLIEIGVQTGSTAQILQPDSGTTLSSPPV

Regarding `Cc1cc(Nc2cc(N(C)CCN(C)C)nc(-c3cc4ccccc4n3C)n2)n[nH]1` [Compound 4, N^4-(2-(dimethylamino)ethyl)-N^4-methyl-2-(1-methyl-1H-indol-2-yl)-N^6-(5-methyl-1H-pyrazol-3-yl)pyrimidine-4,6-diamine], the IC50 in test [1] was not above 100 nM; in test [2] (setting [3]), not above 1000 nM. In addition, the GI50 in the test with HCT116 cells was not above 1000 nM.
For `Cc1cc(Nc2cc(NC3CCOCC3)nc(-c3cccc4ccoc34)n2)n[nH]1` [Example 204, 2-(benzofuran-7-yl)-N^4-(5-methyl-1H-pyrazol-3-yl)-N^6-(tetrahydro-2H-pyran-4-yl)pyrimidine-4,6-diamine], the figures for the IC50 (in test [1]; in the test with HCT116 cells; in test [2] (setting [3])) were not above 100 nM, 1000 to 10000 nM and not above 1000 nM, respectively.
In the same order, the values of `Cc1cc(Nc2cc(NC3CCOCC3)nc(-c3cc4cc(NS(=O)(=O)C5CC5)ccc4o3)n2)n[nH]1` [Example 156, N-(2-(4-(5-methyl-1H-pyrazol-3-ylamino)-6-(tetrahydro-2H-pyran-4-ylamino)pyrimidin-2-yl)benzofuran-5-yl)cyclopropanesulfonamide] are not above 100 nM, 1000 to 10000 nM and not above 1000 nM.
With `CC(=O)c1cccc(-c2nc(Nc3cc(C)[nH]n3)cc(N3CCN(C)CC3)n2)c1` [Example 165, 1-(3-(4-(5-methyl-1H-pyrazol-3-ylamino)-6-(4-methylpiperazin-1-yl)pyrimidin-2-yl)phenyl)ethanone], the IC50 in test [1] and in test [2] (40 minutes at room temperature) was not above 100 nM in each case. For the same molecule, in the test with HCT116 cells, the GI50 is not above 1000 nM.
With `Cc1cc(Nc2cc(N3CCN(C)CC3)nc(-c3cccc4ccccc34)n2)n[nH]1` [Example 134, N-(5-methyl-1H-pyrazol-3-yl)-6-(4-methylpiperazin-1-yl)-2-(naphthalen-1-yl)pyrimidin-4-amine], the IC50 in test [1] is not above 100 nM; with HCT116 cells, 1000 to 10000 nM; in test [2] (40 minutes at room temperature), not above 100 nM.
In the case of `Cc1cc(Nc2cc(N3CCN(C)CC3)nc(-c3ccccc3Cl)n2)n[nH]1` [Compound 37, 2-(2-chlorophenyl)-N-(5-methyl-1H-pyrazol-3-yl)-6-(4-methylpiperazin-1-yl)pyrimidin-4-amine], the IC50 in test [1] is not above 100 nM; with HCT116 cells, 1000 to 10000 nM; in test [2] (40 minutes at room temperature) it was not above 100 nM.
As to `Cc1cc(Nc2cc(N3CCN(C)CC3)nc(-c3ccc(C(C)(C)C)cc3)n2)n[nH]1` [Compound 82, 2-(4-tert-butylphenyl)-N-(5-methyl-1H-pyrazol-3-yl)-6-(4-methylpiperazin-1-yl)pyrimidin-4-amine], the IC50 in test [1] was not above 100 nM; in the test with HCT116 cells, 1000 to 10000 nM; in test [2] (setting [3]) it was not above 1000 nM.
As for `Cc1cc(Nc2cc(N3CCN(C)CC3)nc(-c3ccc(N(C)C)cc3)n2)n[nH]1` [Compound 85, 2-(4-(dimethylamino)prenyl)-N-(b-methyl-1H-pyrazol-3-yl)-6-(4-methylpiperazin-1-yl)pyrimidin-4-amine], the IC50 in test [1] and in test [2] (40 minutes at room temperature) was not above 100 nM in each case. The GI50 in the test on HCT116 cells was not above 1000 nM.
`Cc1cc(Nc2cc(NC3CCOCC3)nc(-c3ccc4c(c3)OCCO4)n2)n[nH]1` [Example 130, 2-(2,3-dihydrobenzo[b][1,4]dioxin-6-yl)-N^4-(5-methyl-1H-pyrazol-3-yl)-N^6-(tetrahydro-2H-pyran-4-yl)pyrimidine-4,6-diamine]: the IC50 is not above 100 nM in test [1], 1000 to 10000 nM in the test with HCT116 cells and not above 1000 nM in test [2] (setting [3]).
In the same order, the values of `CCc1ccccc1-c1nc(Nc2cc(C)[nH]n2)cc(NC2CCOCC2)n1` [Example 174, 2-(2-ethylphenyl)-N^4-(5-methyl-1H-pyrazol-3-yl)-N^6-(tetrahydro-2H-pyran-4-yl)pyrimidine-4,6-diamine] are not above 100 nM, 1000 to 10000 nM and not above 1000 nM.
In the same order, the values of `Cc1ccc(C)c(-c2nc(Nc3cc(C)[nH]n3)cc(N3CCN(C)CC3)n2)c1` [Example 201, 2-(2,5-dimethylphenyl)-N-(5-methyl-1H-pyrazol-3-yl)-6-(4-methylpiperazin-1-yl)pyrimidin-4-amine] are not above 100 nM, 1000 to 10000 nM and not above 1000 nM.
With `Cc1cc(Nc2cc(NC3CCOCC3)nc(-c3ccccc3)n2)n[nH]1` [Compound 12, N^4-(tetrahydro-2H-pyran-4-yl)-N^6-(5-methyl-1H-pyrazol-3-yl)-2-phenylpyrimidine-4,6-diamine], the IC50 in test [1] and in test [2] (40 minutes at room temperature) was not above 100 nM in each case. In addition, the GI50 in the test on HCT116 cells was not above 1000 nM.
Take `Cc1cc(Nc2cc(N3CCN(C)CC3)nc(-c3ccc4c(c3)OCCO4)n2)n[nH]1` [Example 137, 2-(2,3-dihydrobenzo[b][1,4]dioxin-6-yl)-N-(5-methyl-1H-pyrazol-3-yl)-6-(4-methylpiperazin-1-yl)pyrimidin-4-amine]: the IC50 in test [1] and in test [2] (40 minutes at room temperature) was not above 100 nM each time. Moreover, the GI50 with HCT116 cells was not above 1000 nM.
In the case of `Cc1cc(Nc2cc(NC3CCOCC3)nc(-c3cc4ccccc4o3)n2)n[nH]1` [Compound 15, 2-(benzofuran-2-yl)-N^4-(tetrahydro-2H-pyran-4-yl)-N^6-(5-methyl-1H-pyrazol-3-yl)-pyrimidine-4,6-diamine], the IC50 in test [1] and in test [2] (40 minutes at room temperature) was not above 100 nM each time. In addition, in the test on HCT116 cells, the GI50 is not above 1000 nM.
Regarding `Cc1cc(Nc2cc(NCCN3CCN(C)CC3)nc(-c3ccccc3)n2)n[nH]1` [Compound 13, N^4-(5-methyl-1H-pyrazol-3-yl)-N^6-(2-(4-methylpiperazin-1-yl)ethyl)-2-phenylpyrimidine-4,6-diamine], the IC50 in test [1] and in test [2] (40 minutes at room temperature) was not above 100 nM in each case. Besides, the GI50 with HCT116 cells was not above 1000 nM.
For `CCOc1cccc(-c2nc(Nc3cc(C)[nH]n3)cc(N3CCN(C)CC3)n2)c1` [Example 190, 2-(3-ethoxyphenyl)-N-(5-methyl-1H-pyrazol-3-yl)-6-(4-methylpiperazin-1-yl)pyrimidin-4-amine], the IC50 in test [1] and in test [2] (40 minutes at room temperature) was not above 100 nM each time. In addition, in the test with HCT116 cells, the GI50 is not above 1000 nM.
Turning to `COc1cccc(-c2nc(Nc3cc(C)[nH]n3)cc(NC3CCOCC3)n2)c1` [Compound 29, 2-(3-methoxyphenyl)-N^4-(5-methyl-1H-pyrazol-3-yl)-N^6-(tetrahydro-2H-pyran-4-yl)pyrimidine-4,6-diamine], the IC50 in test [1] was not above 100 nM; with HCT116 cells it was 1000 to 10000 nM; in test [2] (40 minutes at room temperature), not above 100 nM.
In the case of `Cc1cc(Nc2cc(NC3CCOCC3)nc(-c3cccc(N(C)C)c3)n2)n[nH]1` [Compound 74, 2-(3-(dimethylamino)phenyl)-N^4-(5-methyl-1H-pyrazol-3-yl)-N^6-(tetrahydro-2H-pyran-4-yl)pyrimidine-4,6-diamine], the IC50 in test [1] and in test [2] (40 minutes at room temperature) was not above 100 nM in each case. For the same molecule, the GI50 in the test on HCT116 cells is not above 1000 nM.
Turning to `Cc1cc(Nc2cc(N3CCN(C)CC3)nc(-c3ccccc3)n2)n[nH]1` [Compound 8, N-(5-methyl-1H-pyrazol-3-yl)-6-(4-methylpiperazin-1-yl)-2-phenyl pyrimidin-4-amine], the IC50 in test [1] and in test [2] (40 minutes at room temperature) was not above 100 nM throughout. In addition, in the test with HCT116 cells, the GI50 is not above 1000 nM.
As to `Cc1cc(Nc2cc(N3CCN(C)CC3)nc(-c3cc(F)cc(F)c3)n2)n[nH]1` [Example 170, 2-(3,5-difluorophenyl)-N-(5-methyl-1H-pyrazol-3-yl)-6-(4-methylpiperazin-1-yl)pyrimidin-4-amine], the IC50 in test [1] is not above 100 nM. The GI50 in the test on HCT116 cells is not above 1000 nM.
Take `Cc1cc(Nc2cc(NC3CCOCC3)nc(-c3ccc(-c4ccccc4)cc3)n2)n[nH]1` [Example 158, 2-(biphenyl-4-yl)-N^4-(5-methyl-1H-pyrazol-3-yl)-N^6-(tetrahydro-2H-pyran-4-yl)pyrimidine-4,6-diamine]: the IC50 is not above 100 nM in test [1] and 1000 to 10000 nM with HCT116 cells.
As to `Cc1cc(Nc2cc(N3CCN(C)CC3)nc(-c3cccc(N(C)C)c3)n2)n[nH]1` [Compound 86, 2-(3-(dimethylamino)phenyl)-N-(5-methyl-1H-pyrazol-3-yl)-b-(4-methylpiperazin-1-yl)pyrimidin-4-amine], the IC50 in test [1] is not above 100 nM. Moreover, the GI50 in the test with HCT116 cells is not above 1000 nM.
For `Cc1cc(Nc2cc(N3CCN(C)CC3)nc(-c3ccc([N+](=O)[O-])cc3)n2)n[nH]1` [Example 164, N-(5-methyl-1H-pyrazol-3-yl)-6-(4-methylpiperazin-1-yl)-2-(4-nitrophenyl)pyrimidin-4-amine], the IC50 in test [1] was not above 100 nM; in the test on HCT116 cells it was 1000 to 10000 nM.
